Results: patent publication US20140249135A1, “PIM KINASE INHIBITORS AND METHODS OF THEIR USE” (NOVARTIS AG, priority 2007, published 2014)
Where two headings read alike, the source gives them in different places.

Assays:
Pim1 kinase = Pim1 kinase (Homo sapiens, UniProt P11309); assay: Pim1 ATP depletion assay; assay type: biochemical;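 also: Luciferase-luciferin luminescence readout of residual ATP after PIM1 transfers phosphate to a peptide substrate, 40 µM ATP added, reaction run to roughly half ATP consumption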
Pim2 kinase = Pim2 kinase (Homo sapiens, UniProt Q9P1W9); assay: Pim2 ATP depletion assay; assay type: biochemical;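 also: Luciferase-based luminescent readout of ATP remaining after PIM2 phosphorylates a BAD peptide, final 5 nM enzyme, 4 µM ATP, 10 µM peptide, 2.5% DMSO, run to roughly half ATP consumption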
Pim3 kinase = Pim3 kinase (Homo sapiens, UniProt Q86V86); assay: Pim3 ATP depletion assay; assay type: biochemical
[1] = system: KMS 11 (human myeloma cell line); assay: Cell proliferation assay (CellTiter-Glo), KMS 11; assay type: cell-based; settings: KMS11 cells
Method: (§1) KMS 11 (human myeloma cell line), were cultured in IMDM supplemented with 10% FBS, sodium pyruvate and antibiotics. Cells were plated in the same medium at a density of 2000 cells per well into 96 well tissue culture plates, with outside wells vacant, on the day of assay. MM1.s (human myeloma cell line), were cultured in RPMI1640 supplemented with 10% FBS, sodium pyruvate and antibiotics. Cells were plated in the same medium at a density of 5000 cells per well into 96 well tissue culture plates, with outside wells vacant, on the day of assay.
(§2) Test compounds supplied in DMSO were diluted into DMSO at 500 times the desired final concentrations before dilution into culture media to 2 times final concentrations. Equal volumes of 2× compounds were added to the cells in 96 well plates and incubated at 37° C. for 3 days.
(§3) After 3 days plates were equilibrated to room temperature and equal volume of CellTiter-Glow Reagent (Promega) was added to the culture wells. The plates were agitated briefly and luminescent signal was measured with luminometer. The percent inhibition of the signal seen in cells treated with DMSO alone vs. cells treated with control compound was calculated and used to determine EC50 values (i.e., the concentration of a test compound that is required to obtain 50% of the maximum effect in the cells) for tested compounds, as shown in Example 763.

[2] = system: MM1.s (human myeloma cell line); assay: Cell proliferation assay (CellTiter-Glo), MM1.s; assay type: cell-based; settings: MM1.s cells
Method: as §1, §2, §3

HEL 92.1.7 cells = assay: Cell proliferation assay (CellTiter-Glo), HEL 92.1.7; assay type: cell-based; settings: Homo sapiens, read-out: EC50 (μM) HEL 92.1.7
How it was run: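 CellTiter-Glo luminescence was read after 3-day compound exposure at 37 °C of cells plated at 1000/well in RPMI1640 with 10% FBS. Signal was normalised between DMSO-treated and control-compound-treated wells. EC50 is the concentration giving 50% of maximal effect.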

PC3 cells = assay: Cell proliferation assay (CellTiter-Glo), PC3; assay type: cell-based; settings: Homo sapiens, PC-3
Method: HEL 92.1.7 cells (ATTC No. TIB-180, an erythroleukemia line derived from malignant peripheral blood), MV4-11 cells (ATCC No. CRL-9591, a human acute monocytic leukemia line) and PC3 cells (ATCC No. CRL-1435, a human prostatic adenocarcinoma line) were cultured in RPMI1640 supplemented with 10% FBS, sodium pyruvate and antibiotics. Cells were plated in the same medium at a density of 1000 cells per well into 96 well tissue culture plates, with outside wells vacant, on the day of assay.
as §2, §3

[3] = target: T1, human full length PKCE enzyme (Homo sapiens, UniProt Q02156); assay: In vitro PKCE assay; assay type: biochemical; settings: 10 nM enzyme, 40 uM peptide substrate, 20 uM ATP, KinaseGlo Plus readout; read-out: PKCε IC50
T1 construct: human full length PKCE enzyme purchased from InVitrogen; purchased InVitrogen
T1 sequence (Q02156 1-737): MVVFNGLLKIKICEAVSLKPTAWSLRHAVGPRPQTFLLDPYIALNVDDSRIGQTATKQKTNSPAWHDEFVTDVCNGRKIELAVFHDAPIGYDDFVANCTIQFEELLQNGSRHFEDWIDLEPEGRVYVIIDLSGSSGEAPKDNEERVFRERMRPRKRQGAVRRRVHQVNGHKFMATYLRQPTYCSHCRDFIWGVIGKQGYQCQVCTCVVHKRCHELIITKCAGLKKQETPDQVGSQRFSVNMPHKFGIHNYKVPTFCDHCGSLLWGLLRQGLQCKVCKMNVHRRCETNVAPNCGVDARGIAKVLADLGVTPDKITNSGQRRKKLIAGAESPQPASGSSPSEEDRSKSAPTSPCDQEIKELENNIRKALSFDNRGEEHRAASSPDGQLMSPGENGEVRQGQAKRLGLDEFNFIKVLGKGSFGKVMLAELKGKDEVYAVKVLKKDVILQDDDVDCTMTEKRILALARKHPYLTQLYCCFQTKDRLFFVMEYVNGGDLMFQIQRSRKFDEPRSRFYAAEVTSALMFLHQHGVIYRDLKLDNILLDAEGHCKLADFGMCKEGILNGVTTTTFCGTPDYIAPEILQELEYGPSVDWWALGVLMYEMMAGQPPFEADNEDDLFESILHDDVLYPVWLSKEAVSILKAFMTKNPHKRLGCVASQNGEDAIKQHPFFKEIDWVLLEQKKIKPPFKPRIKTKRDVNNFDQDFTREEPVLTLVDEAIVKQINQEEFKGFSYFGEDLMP

KDR kinase = KDR kinase (Homo sapiens, UniProt P35968); assay: KDR AlphaScreen assay; settings: KDR IC50 (μM)
[4] = Pim1 ATP depletion assay, read-out: PIM1 IC50
[5] = Pim1 ATP depletion assay, read-out: IC50 (μM) PIM1

Sequence of Pim2 kinase (Q9P1W9 whole entry): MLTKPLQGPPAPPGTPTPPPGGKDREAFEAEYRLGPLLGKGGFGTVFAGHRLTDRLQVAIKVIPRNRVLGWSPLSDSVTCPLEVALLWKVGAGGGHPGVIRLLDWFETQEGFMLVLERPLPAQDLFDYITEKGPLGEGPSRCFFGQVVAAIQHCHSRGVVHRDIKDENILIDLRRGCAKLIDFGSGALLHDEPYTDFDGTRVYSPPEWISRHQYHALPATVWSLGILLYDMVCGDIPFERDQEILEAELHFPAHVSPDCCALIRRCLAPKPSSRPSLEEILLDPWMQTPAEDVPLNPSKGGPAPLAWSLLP
Sequence of Pim1 kinase (P11309 whole entry): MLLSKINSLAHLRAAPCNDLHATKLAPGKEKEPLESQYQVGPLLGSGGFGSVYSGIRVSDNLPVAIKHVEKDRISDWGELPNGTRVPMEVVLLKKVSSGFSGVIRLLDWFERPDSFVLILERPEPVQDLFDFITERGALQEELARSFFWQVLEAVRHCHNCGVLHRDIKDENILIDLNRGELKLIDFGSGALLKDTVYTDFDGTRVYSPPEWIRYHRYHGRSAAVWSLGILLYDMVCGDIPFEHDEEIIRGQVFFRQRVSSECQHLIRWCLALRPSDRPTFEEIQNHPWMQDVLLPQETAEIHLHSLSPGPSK
Sequence of KDR kinase (P35968 20-1356): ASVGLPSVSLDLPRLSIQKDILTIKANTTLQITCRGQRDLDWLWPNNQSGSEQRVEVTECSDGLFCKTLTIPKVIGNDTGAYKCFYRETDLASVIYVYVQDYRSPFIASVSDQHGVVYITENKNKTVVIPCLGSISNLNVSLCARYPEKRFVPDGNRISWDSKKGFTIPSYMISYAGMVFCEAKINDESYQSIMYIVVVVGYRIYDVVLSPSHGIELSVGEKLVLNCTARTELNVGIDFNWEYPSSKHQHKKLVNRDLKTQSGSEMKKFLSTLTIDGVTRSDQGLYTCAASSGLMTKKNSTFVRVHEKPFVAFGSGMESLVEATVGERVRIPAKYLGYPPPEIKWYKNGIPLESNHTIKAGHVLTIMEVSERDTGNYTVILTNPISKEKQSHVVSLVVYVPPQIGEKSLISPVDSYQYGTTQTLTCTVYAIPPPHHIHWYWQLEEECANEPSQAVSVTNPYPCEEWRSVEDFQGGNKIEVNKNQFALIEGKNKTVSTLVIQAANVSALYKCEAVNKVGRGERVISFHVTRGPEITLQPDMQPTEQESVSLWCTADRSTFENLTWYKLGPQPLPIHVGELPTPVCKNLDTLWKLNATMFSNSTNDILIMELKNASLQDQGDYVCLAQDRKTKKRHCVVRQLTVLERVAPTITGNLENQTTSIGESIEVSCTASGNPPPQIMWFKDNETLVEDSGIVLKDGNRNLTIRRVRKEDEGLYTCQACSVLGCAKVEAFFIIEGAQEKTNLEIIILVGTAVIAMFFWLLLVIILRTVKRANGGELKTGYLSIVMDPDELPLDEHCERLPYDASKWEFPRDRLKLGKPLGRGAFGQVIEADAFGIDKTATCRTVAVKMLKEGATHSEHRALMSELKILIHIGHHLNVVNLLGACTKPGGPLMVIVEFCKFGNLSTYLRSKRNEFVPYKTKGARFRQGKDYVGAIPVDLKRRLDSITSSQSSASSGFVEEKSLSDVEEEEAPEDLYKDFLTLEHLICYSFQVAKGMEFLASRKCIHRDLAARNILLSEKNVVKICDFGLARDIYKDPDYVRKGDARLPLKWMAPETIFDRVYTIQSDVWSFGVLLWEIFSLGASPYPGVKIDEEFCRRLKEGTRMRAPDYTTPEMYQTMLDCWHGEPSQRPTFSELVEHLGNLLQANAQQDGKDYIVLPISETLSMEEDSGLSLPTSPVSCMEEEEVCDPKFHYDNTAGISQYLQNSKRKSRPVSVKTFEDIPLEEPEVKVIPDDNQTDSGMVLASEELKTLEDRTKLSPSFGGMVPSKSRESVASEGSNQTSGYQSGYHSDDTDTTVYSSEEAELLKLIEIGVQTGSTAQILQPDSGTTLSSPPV

Structure (SMILES) | IC50 (Pim2 kinase; read-out: PIM2 IC50) | IC50 (Pim3 kinase; read-out: PIM3 IC50) | EC50 ([1]; read-out: KMS11 EC50) | EC50 ([2]; read-out: MM1.s EC50) | IC50 (Pim1 kinase; [5]) | IC50 (Pim3 kinase; read-out: IC50 (μM) PIM3) | EC50 ([1]; read-out: EC50 (μM) KMS11) | EC50 ([2]; read-out: EC50 (μM) MM1.s) | IC50 (Pim2 kinase; read-out: IC50 (μM) PIM2) | other results
N[C@@H]1CN(c2ccncc2NC(=O)c2ccc(F)c(-c3c(F)cccc3F)n2)CC[C@H]1O [Example 683, 6-(2,6-Difluoro-phenyl)-5-fluoro-pyridine-2-carboxylic acid (3-amino-4-hydroxy-3,4,5,6-tetrahydro-2H-[1,4′]bi-pyridinyl-3′-yl)-amide] | < 1 µM | < 1 µM | < 1 µM | 1 to 5 µM | – | – | – | – | – | IC50 (Pim1 kinase; [4]): < 1 µM
CC(C)NC(=O)c1ccc(F)c(-c2ccc(N)c(C(=O)Nc3cnccc3N3CC[C@H](O)[C@H](N)C3)n2)c1 [Example 753, 3-Amino-6-(2-fluoro-5-isopropyl-carbamoyl-phenyl)-pyridine-2-carboxylic acid (3-amino-4-hydroxy-3,4,5,6-tetrahydro-2H-[1,4′]bipyridinyl-3′-yl)-amide] | < 1 µM | < 1 µM | 1 to 5 µM | < 1 µM | – | – | – | – | – | IC50 (Pim1 kinase; [4]): < 1 µM
CC(C)NC(=O)c1ccc(F)c(-c2nc(C(=O)Nc3cnccc3N3CCC[C@H](N)C3)c(N)cc2F)c1F [Example 736, 3-Amino-6-(2,6-difluoro-3-isopropylcarbamoyl-phenyl)-5-fluoro-pyridine-2-carboxylic acid (3-amino-3,4,5,6-tetra-hydro-2H-[1,4′]bipyridinyl-3′-yl)-amide] | < 1 µM | < 1 µM | < 1 µM | 1 to 5 µM | – | – | – | – | – | IC50 (Pim1 kinase; [4]): < 1 µM
N[C@H]1CCCN(c2ccncc2NC(=O)c2ccc(F)c(-c3c(F)cccc3F)n2)C1 [Example 445] | – | – | – | – | < 1 µM | < 1 µM | 1 to 5 µM | 1 to 5 µM | – | –
CCCOc1ccc(F)c(-c2nc(C(=O)Nc3cnccc3N3CCC[C@H](N)C3)c(N)cc2F)c1F [Example 494, 3-Amino-6-(2,6-difluoro-3-propoxy-phenyl)-5-fluoro-pyridine-2-carboxylic acid (3-amino-3,4,5,6-tetrahydro-2H-[1,4′]bipyridinyl-3′-yl)-amide] | – | – | – | – | < 1 µM | < 1 µM | < 1 µM | 1 to 5 µM | < 1 µM | –
CC(C)NC(=O)c1ccc(F)c(-c2ccc(N)c(C(=O)Nc3cnccc3N3C[C@@H](N)C[C@@H](F)C3)n2)c1 [Example 292, 3-Amino-6-(2-fluoro-5-isopropylcarbamoyl-phenyl)-pyridine-2-carboxylic acid (3-amino-5-fluoro-3,4,5,6-tetra-hydro-2H-[1,4′]bipyridinyl-3′-yl)-amide] | – | – | – | – | < 1 µM | < 1 µM | < 1 µM | < 1 µM | < 1 µM | –
Nc1cc(F)c(-c2ccccc2F)nc1C(=O)Nc1cnccc1N1CCC[C@H](N)C1 [Example 517, 3-Amino-5-fluoro-6-(2-fluoro-phenyl)-pyridine-2-carboxylic acid (3-amino-3,4,5,6-tetrahydro-2H-[1,4′]bipyridinyl-3′-yl)-amide] | – | – | – | – | < 1 µM | < 1 µM | 1 to 5 µM | 1 to 5 µM | < 1 µM | –
N[C@H]1CCCN(c2ccncc2NC(=O)c2nc(-c3c(F)cccc3F)ccc2F)C1 [Example 570, 6-(2,6-Difluoro-phenyl)-3-fluoro-pyridine-2-carboxylic acid (3-amino-3,4,5,6-tetrahydro-2H-[1,4′]bipyridinyl-3′-yl)-amide] | < 1 µM | < 1 µM | 1 to 5 µM | 1 to 5 µM | – | – | – | – | – | IC50 (Pim1 kinase; [4]): < 1 µM
CO[C@@H]1C[C@H](N)CN(c2ccncc2NC(=O)c2nc(-c3c(F)cccc3F)ccc2N)C1 [Example 300, 3-Amino-6-(2,6-difluoro-phenyl)-pyridine-2-carboxylic acid (3-amino-5-methoxy-3,4,5,6-tetrahydro-2H-[1,4′]bi-pyridinyl-3′-yl)-amide] | – | – | – | – | < 1 µM | < 1 µM | < 1 µM | < 1 µM | < 1 µM | –
Nc1ccc(-c2c(F)cccc2F)nc1C(=O)Nc1cnccc1N1CCC[C@@H](N)C1 [Example 462, 3-Amino-6-(2,6-difluoro-phenyl)-pyridine-2-carboxylic acid (3-amino-3,4,5,6-tetrahydro-2H-[1,4′]bipyridinyl-3′-yl)-amide] | – | – | – | – | < 1 µM | < 1 µM | 1 to 5 µM | 1 to 5 µM | < 1 µM | –
CCCOc1ccc(F)c(-c2ccc(N)c(C(=O)Nc3cnccc3N3CCC[C@H](N)C3)n2)c1F [Example 491, 3-Amino-6-(2,6-difluoro-3-propoxy-phenyl)-pyridine-2-carboxylic acid (3-amino-3,4,5,6-tetrahydro-2H-[1,4′]bipyridinyl-3′-yl)-amide] | – | – | – | – | < 1 µM | < 1 µM | 1 to 5 µM | 1 to 5 µM | < 1 µM | –
Nc1cc(F)c(-c2c(F)cccc2F)nc1C(=O)Nc1cnccc1N1CCC[C@H](N)C1 [Example 516, 3-Amino-6-(2,6-difluoro-phenyl)-5-fluoro-pyridine-2-carboxylic acid (3-amino-3,4,5,6-tetrahydro-2H-[1,4′]bipyridinyl-3′-yl)-amide] | – | – | – | – | < 1 µM | < 1 µM | < 1 µM | < 1 µM | < 1 µM | –
Nc1ccc(-c2c(F)cccc2F)nc1C(=O)Nc1cnccc1N1CC[C@@H](O)[C@H](N)C1 [Example 679, 3-Amino-6-(2,6-difluoro-phenyl)-pyridine-2-carboxylic acid (3-amino-4-hydroxy-3,4,5,6-tetrahydro-2H-[1,4′]bi-pyridinyl-3′-yl)-amide] | < 1 µM | < 1 µM | 1 to 5 µM | < 1 µM | – | – | – | – | – | IC50 (Pim1 kinase): < 1 µM
N#Cc1ccccc1-c1cnc(N)c(C(=O)Nc2cnccc2N2CCCC(N)C2)n1 (stereo not drawn) [Example 345, 3-amino-6-(2-cyano-phenyl)-pyrazine-2-carboxylic acid (3-amino-3,4,5,6-tetrahydro-2H-[1,4′]bipyridinyl-3′-yl)-amide] | – | – | – | – | < 1 µM | < 1 µM | – | – | < 1 µM | EC50 (HEL 92.1.7 cells): < 1 µM; EC50 (PC3 cells): < 1 µM; IC50 [3]: < 1000 nM; IC50 (KDR kinase): < 1 µM
CCOc1ccc(Cl)c(-c2ccc(N)c(C(=O)Nc3cnccc3N3CCC[C@H](N)C3)n2)c1 [Example 322, 3-amino-6-(2-chloro-5-ethoxy-phenyl)-pyridine-2-carboxylic acid ((S)-3-amino-3,4,5,6-tetrahydro-2H-[1,4′]bi-pyridinyl-3′-yl)-amide] | – | – | – | – | < 1 µM | < 1 µM | – | – | < 1 µM | EC50 (HEL 92.1.7 cells): < 1 µM; EC50 (PC3 cells): 5 to 10 µM; IC50 [3]: 1000 to 10000 nM; IC50 (KDR kinase): > 25 µM
